Values belong to the molecule of their own block, whether it stands above or below them.
What was measured:
[1] = target: T1, Brainiac β1-3-N-acetylglucosaminyltransferase (Drosophila melanogaster, UniProt Q24157); assay: Substrate specificities of Brainiac β1-3-N-acetylglucosaminyltransferase (acceptor panel, microsomal preparations); assay type: biochemical; conditions: microsomes of pVL-Brainiac infected High Five cells, background of irrelevant construct subtracted, donor UDP-GlcNAc
T1 construct: The full coding region of Brainiac was prepared by PCR using genomic DNA; made in house; host or cells: High Five insect cells (baculovirus vector pVL1393); microsomal fractions
T1 sequence (Q24157 1-325): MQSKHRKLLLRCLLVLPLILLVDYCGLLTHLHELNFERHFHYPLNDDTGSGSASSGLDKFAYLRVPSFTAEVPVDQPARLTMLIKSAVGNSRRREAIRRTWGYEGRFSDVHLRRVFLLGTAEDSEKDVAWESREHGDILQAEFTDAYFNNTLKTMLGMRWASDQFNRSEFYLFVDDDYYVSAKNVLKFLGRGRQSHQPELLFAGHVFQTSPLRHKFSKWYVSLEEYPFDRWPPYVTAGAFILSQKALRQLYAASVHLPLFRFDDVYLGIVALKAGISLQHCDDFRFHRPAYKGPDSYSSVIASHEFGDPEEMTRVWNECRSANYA

Notch = target: T2, Notch (Drosophila melanogaster, UniProt P07207); assay: Delta-AP binding to Notch transfected S2 cells; assay type: cell-based
T2 construct: expressed in transfected cells; host or cells: Drosophila Schneider S2 cells, transient transfection, pRmHa3
Method: Cell culture and Binding assays: cDNAs for expression in Schneider S2 cells were cloned into pRmHa3. Cells were transiently transfected by the CaPO4 method using 6-8 μg of DNA per well in 6 well plates. Expression was induced by addition of 0.7 mM CuSO4 for 2 days. Conditioned medium was collected from Notch-AP and Delta-AP transfected cells 2 days after induction. AP activity was adjusted to normalise activity levels of Notch-AP or Delta-AP expressed with or without Fringe. Binding was performed as described in Cheng and Flanagan, 1994. In brief, AP-containing supernatants were supplemented with 0.1% NaN3, and incubated 90 min at room temperature. Cells were washed 5 times in HBSS containing 0.05% BSA and 0.1% azide, and lysed in 10 mM Tris pH 8, 1% Triton-X100. Endogenous AP was inactivated by heat treatment for 10 min 60° C. and the lysates clarified by centrifugation. AP activity was measured in 1M Diethanolamine, 1 mM MgCl2, 5 mM para-nitrophenyl phosphate. Bound AP activity was quantified in 96 well plates using a microplate reader and Micromanager software (BioRad). An additional replicate of each transfection was prepared for immunoblot analysis. Lysates were prepared separately for Immunoblot analysis to allow inclusion of protease inhibitors which are not used in the binding assay. To measure interaction of Delta-AP with transiently transfected S2 cells, bound AP activity was quantified in an enzymatic colour reaction. Cells transfected with empty vector were used as a control. […] AP activity is shown in mOD units/minute in cell extracts (replicate experiments are shown in this figure). In this experiment Fringe stimulated binding by over 50 fold. […] However, the assay allows measurement of Fringe-dependent stimulation of Delta-AP binding.

T2 sequence (P07207 53-2703): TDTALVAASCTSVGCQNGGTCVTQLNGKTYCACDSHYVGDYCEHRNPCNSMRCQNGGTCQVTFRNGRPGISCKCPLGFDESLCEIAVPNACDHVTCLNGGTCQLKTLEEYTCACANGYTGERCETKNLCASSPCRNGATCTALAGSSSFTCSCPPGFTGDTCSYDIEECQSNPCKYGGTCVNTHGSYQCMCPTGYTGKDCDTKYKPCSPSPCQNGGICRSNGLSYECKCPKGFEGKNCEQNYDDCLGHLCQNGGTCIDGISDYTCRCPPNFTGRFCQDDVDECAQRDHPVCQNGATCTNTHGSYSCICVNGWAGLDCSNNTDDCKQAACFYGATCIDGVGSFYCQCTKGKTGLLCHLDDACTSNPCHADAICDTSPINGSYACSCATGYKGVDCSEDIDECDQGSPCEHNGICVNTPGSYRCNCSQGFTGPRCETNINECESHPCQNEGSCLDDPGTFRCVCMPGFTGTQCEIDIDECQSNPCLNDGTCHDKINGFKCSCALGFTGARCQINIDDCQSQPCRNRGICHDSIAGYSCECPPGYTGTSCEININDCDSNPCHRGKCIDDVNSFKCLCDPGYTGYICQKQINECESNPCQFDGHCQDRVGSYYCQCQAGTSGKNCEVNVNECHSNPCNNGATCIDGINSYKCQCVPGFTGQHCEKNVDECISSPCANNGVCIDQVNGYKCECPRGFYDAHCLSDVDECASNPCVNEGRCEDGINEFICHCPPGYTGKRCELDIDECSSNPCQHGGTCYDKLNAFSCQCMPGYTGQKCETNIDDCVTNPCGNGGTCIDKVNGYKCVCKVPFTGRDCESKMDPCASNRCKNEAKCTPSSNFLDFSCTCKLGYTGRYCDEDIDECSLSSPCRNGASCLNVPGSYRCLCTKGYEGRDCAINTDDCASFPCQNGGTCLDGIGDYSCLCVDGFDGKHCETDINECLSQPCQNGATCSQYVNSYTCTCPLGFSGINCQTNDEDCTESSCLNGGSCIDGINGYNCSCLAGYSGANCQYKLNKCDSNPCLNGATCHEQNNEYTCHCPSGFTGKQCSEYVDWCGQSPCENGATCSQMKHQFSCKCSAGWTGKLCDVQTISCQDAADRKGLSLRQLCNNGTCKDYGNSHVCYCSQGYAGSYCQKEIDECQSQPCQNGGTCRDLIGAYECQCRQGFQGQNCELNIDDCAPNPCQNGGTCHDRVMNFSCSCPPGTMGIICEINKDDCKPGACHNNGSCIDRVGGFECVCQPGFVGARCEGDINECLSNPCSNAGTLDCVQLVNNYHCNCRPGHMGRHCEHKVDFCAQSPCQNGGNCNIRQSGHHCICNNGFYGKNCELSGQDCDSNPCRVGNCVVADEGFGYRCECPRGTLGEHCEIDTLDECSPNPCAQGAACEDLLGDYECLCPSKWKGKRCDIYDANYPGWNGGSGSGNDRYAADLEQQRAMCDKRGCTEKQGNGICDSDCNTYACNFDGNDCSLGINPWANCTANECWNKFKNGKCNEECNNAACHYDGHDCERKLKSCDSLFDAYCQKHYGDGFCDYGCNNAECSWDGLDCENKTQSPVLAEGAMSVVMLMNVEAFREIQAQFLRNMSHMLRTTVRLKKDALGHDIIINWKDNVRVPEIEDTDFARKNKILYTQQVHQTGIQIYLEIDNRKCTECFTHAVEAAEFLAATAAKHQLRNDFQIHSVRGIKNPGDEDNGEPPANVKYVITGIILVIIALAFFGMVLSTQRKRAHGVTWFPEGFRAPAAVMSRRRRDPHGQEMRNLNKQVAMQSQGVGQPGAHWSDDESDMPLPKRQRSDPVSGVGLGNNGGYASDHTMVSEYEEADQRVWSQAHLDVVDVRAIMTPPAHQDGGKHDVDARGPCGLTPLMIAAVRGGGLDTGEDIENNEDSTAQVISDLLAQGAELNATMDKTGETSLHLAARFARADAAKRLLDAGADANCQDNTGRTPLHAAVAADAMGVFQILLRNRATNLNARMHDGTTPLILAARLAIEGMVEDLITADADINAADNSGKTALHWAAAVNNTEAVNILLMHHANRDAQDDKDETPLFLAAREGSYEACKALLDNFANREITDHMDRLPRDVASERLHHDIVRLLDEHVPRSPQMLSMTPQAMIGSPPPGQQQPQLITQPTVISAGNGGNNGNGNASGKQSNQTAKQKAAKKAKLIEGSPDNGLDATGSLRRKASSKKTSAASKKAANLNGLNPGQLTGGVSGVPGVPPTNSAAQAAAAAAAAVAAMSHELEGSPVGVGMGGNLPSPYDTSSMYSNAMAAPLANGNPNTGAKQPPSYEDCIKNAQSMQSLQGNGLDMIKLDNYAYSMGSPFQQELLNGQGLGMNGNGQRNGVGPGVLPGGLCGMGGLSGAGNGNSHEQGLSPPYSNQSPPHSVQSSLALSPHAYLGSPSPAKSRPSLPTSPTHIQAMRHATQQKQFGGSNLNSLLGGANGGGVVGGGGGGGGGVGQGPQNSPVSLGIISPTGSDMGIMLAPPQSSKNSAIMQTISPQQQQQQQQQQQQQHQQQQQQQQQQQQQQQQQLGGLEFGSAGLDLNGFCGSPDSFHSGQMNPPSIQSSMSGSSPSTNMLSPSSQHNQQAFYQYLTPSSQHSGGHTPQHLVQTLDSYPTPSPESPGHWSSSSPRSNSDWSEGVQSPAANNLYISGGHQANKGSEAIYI

Brainiac activity with substrate ([1]; substrate 2 mM): 0.03 nmol/h/mg
Molecule: CC(=O)N[C@H]1[C@H](O[C@H]2[C@@H](O)[C@@H](CO)O[C@@H](O[C@H]3[C@H](O)[C@@H](O)C(O)O[C@@H]3CO)[C@@H]2O)O[C@H](CO)[C@@H](O[C@@H]2O[C@H](CO)[C@H](O)[C@H](O)[C@H]2O)[C@@H]1O (mixture of isomers) [lacto-N-neo-tetraose]

Brainiac activity with substrate ([1]; substrate 2 mM): 0.00 nmol/h/mg
Brainiac activity with substrate ([1]; substrate 20 mM): 0.00 nmol/h/mg
Molecule: Cc1cc(=O)oc2cc(O[C@@H]3O[C@@H](C)[C@@H](O)[C@@H](O)[C@@H]3O)ccc12 [L-Fucα1-MeUmb]

Brainiac activity with substrate ([1]; substrate 2 mM): 0.01 nmol/h/mg
Brainiac activity with substrate ([1]; substrate 20 mM): 0.02 nmol/h/mg
Molecule: C[C@@H]1O[C@H](Oc2ccc([N+](=O)[O-])cc2)[C@@H](O)[C@H](O)[C@@H]1O [L-Fucβ1-pNph]

Brainiac activity with substrate ([1]; substrate 2 mM): 0.36 nmol/h/mg
Brainiac activity with substrate ([1]; substrate 20 mM): 0.61 nmol/h/mg
Molecule: COC1OC(CO)C(O)C(O)C1O (stereo not drawn) [Manα1 -Me]

Brainiac activity with substrate ([1]; substrate 2 mM): 0.09 nmol/h/mg
Brainiac activity with substrate ([1]; substrate 20 mM): 0.45 nmol/h/mg
Molecule: OCC1OC(OCC2OC(OCC3OC(O)C(O)C(OC4OC(CO)C(O)C(O)C4O)C3O)C(O)C(OC3OC(CO)C(O)C(O)C3O)C2O)C(O)C(O)C1O (stereo not drawn) [Manα1-3(Manα1-6)Manα1-6(Manα1-3)Man]

Brainiac activity with substrate ([1]; substrate 2 mM): 0.00 nmol/h/mg
Brainiac activity with substrate ([1]; substrate 20 mM): 0.00 nmol/h/mg
Molecule: CO[C@H]1O[C@H](CO)[C@@H](O)[C@H](O[C@H]2O[C@H](CO)[C@@H](O)[C@H](O)[C@@H]2O)[C@@H]1O [Manα1-3Manα1-Me]

Brainiac activity with substrate ([1]; substrate 2 mM): 0.00 nmol/h/mg
Brainiac activity with substrate ([1]; substrate 20 mM): 0.00 nmol/h/mg
Molecule: CO[C@H]1O[C@H](CO)[C@@H](O[C@H]2O[C@H](CO)[C@@H](O)[C@H](O)[C@@H]2O)[C@H](O)[C@@H]1O [Manα1-4Manα1-Me]

Brainiac activity with substrate ([1]; substrate 2 mM): 0.01 nmol/h/mg
Brainiac activity with substrate ([1]; substrate 20 mM): 0.08 nmol/h/mg
Molecule: OC[C@H]1O[C@H](OC[C@H]2O[C@H](OCc3ccccc3)[C@@H](O)[C@@H](O[C@H]3O[C@H](CO)[C@@H](O)[C@H](O)[C@@H]3O)[C@@H]2O)[C@@H](O)[C@@H](O)[C@@H]1O [Manα1-6(Manα1-3)Manα1-Bzl]

Brainiac activity with substrate ([1]; substrate 2 mM): 0.02 nmol/h/mg
Brainiac activity with substrate ([1]; substrate 20 mM): 0.05 nmol/h/mg
Molecule: CO[C@H]1O[C@H](CO[C@H]2O[C@H](CO)[C@@H](O)[C@H](O)[C@@H]2O)[C@@H](O)[C@H](O)[C@@H]1O [Manα1-6Manα1-Me]

Brainiac activity with substrate ([1]; substrate 2 mM): 0.11 nmol/h/mg
Brainiac activity with substrate ([1]; substrate 20 mM): 0.17 nmol/h/mg
Molecule: Cc1cc(=O)oc2cc(O[C@H]3O[C@H](CO)[C@@H](O)[C@H](O)[C@@H]3O)ccc12 [Manα1-MeUmb]

Brainiac activity with substrate ([1]; substrate 2 mM): 0.15 nmol/h/mg
Brainiac activity with substrate ([1]; substrate 20 mM): 0.16 nmol/h/mg
Molecule: CO[C@H]1O[C@H](CO)[C@@H](O)[C@H](O)[C@@H]1O[C@@H]1O[C@H](CO)[C@@H](O)[C@H](O)[C@@H]1O [Manβ1-2Manα1-Me]

Brainiac activity with substrate ([1]; substrate 2 mM): 5.25 nmol/h/mg
Brainiac activity with substrate ([1]; substrate 20 mM): 6.18 nmol/h/mg
Molecule: Cc1cc(=O)oc2cc(O[C@@H]3O[C@H](CO)[C@@H](O)[C@H](O)[C@@H]3O)ccc12 [Manβ1-MeUmb]

Brainiac activity with substrate ([1]; substrate 2 mM): 1.46 nmol/h/mg
Brainiac activity with substrate ([1]; substrate 20 mM): 2.74 nmol/h/mg
Molecule: CO[C@@H]1O[C@H](CO)[C@@H](O)[C@H](O)[C@@H]1O [Manβ1-Me]

Brainiac activity with substrate ([1]; substrate 2 mM): 0.00 nmol/h/mg
Brainiac activity with substrate ([1]; substrate 20 mM): 0.00 nmol/h/mg
Molecule: CC(=O)N[C@H]1[C@H](O[C@H]2[C@@H](O)[C@@H](CO)O[C@@H](O[C@H]3[C@H](O)[C@@H](O)C(O)O[C@@H]3CO)[C@@H]2O)O[C@H](CO)[C@@H](O)[C@@H]1O[C@@H]1O[C@H](CO)[C@H](O)[C@H](O)[C@H]1O (stereo partly drawn) [lacto-N-tetraose]

The next lines start with the molecule.

Molecule: C[C@H]1OC(O)[C@H](O)[C@@H](O)[C@H]1O (stereo partly drawn) [D-Fuc]
Brainiac activity with substrate ([1]; substrate 2 mM): 0.01 nmol/h/mg
Brainiac activity with substrate ([1]; substrate 20 mM): 0.01 nmol/h/mg

Molecule: Cc1cc(=O)oc2cc(O[C@H]3O[C@H](C)[C@H](O)[C@H](O)[C@H]3O)ccc12 [D-Fucα1-MeUmb]
Brainiac activity with substrate ([1]; substrate 2 mM): 0.00 nmol/h/mg
Brainiac activity with substrate ([1]; substrate 20 mM): 0.00 nmol/h/mg

Molecule: OC[C@H]1O[C@@H](O[C@@H]2[C@H](O)[C@@H](O)C(O)O[C@@H]2CO)[C@H](O)[C@@H](O)[C@H]1O (stereo partly drawn) [Galβ1-4Gal]
Brainiac activity with substrate ([1]; substrate 2 mM): 0.00 nmol/h/mg
Brainiac activity with substrate ([1]; substrate 20 mM): 0.00 nmol/h/mg

Molecule: CC(=O)N[C@H]1[C@H](OCc2ccccc2)O[C@H](CO)[C@@H](O[C@@H]2O[C@H](CO)[C@H](O)[C@H](O)[C@H]2O)[C@@H]1O [Galβ1-4GlcNAcβ1-Bzl]
Brainiac activity with substrate ([1]; substrate 2 mM): 0.04 nmol/h/mg
Brainiac activity with substrate ([1]; substrate 20 mM): 0.02 nmol/h/mg

Molecule: OC[C@H]1O[C@@H](O[C@H]2[C@H](O)[C@@H](O)C(O)O[C@@H]2CO)[C@H](O)[C@@H](O)[C@H]1O (stereo partly drawn) [Galβ1-4Glc]
Brainiac activity with substrate ([1]; substrate 2 mM): 0.42 nmol/h/mg
Brainiac activity with substrate ([1]; substrate 20 mM): 3.08 nmol/h/mg

Molecule: OC[C@H]1O[C@@H](O[C@H]2[C@H](O)[C@@H](O)[C@H](OCc3ccccc3)O[C@@H]2CO)[C@H](O)[C@@H](O)[C@H]1O [Galβ1-4Glcβ1-Bzl]
Brainiac activity with substrate ([1]; substrate 2 mM): 0.48 nmol/h/mg
Brainiac activity with substrate ([1]; substrate 20 mM): 1.69 nmol/h/mg

Molecule: CC(=O)N[C@@H]1C(O)O[C@H](CO)[C@@H](O[C@@H]2O[C@H](CO)[C@H](O)[C@H](O)[C@H]2O)[C@@H]1O (stereo partly drawn) [Galβ1-4ManNAc]
Brainiac activity with substrate ([1]; substrate 2 mM): 0.10 nmol/h/mg
Brainiac activity with substrate ([1]; substrate 20 mM): 0.42 nmol/h/mg

Molecule: OC[C@H]1O[C@@H](O[C@H]2[C@H](O)[C@H](O)C(O)O[C@@H]2CO)[C@H](O)[C@@H](O)[C@H]1O (stereo partly drawn) [Galβ1-4Man]
Brainiac activity with substrate ([1]; substrate 2 mM): 1.48 nmol/h/mg
Brainiac activity with substrate ([1]; substrate 20 mM): 8.39 nmol/h/mg

Molecule: Cc1cc(=O)oc2cc(O[C@@H]3O[C@H](CO)[C@H](O)[C@H](O)[C@H]3O)ccc12 [Galβ1-MeUmb]
Brainiac activity with substrate ([1]; substrate 2 mM): 0.19 nmol/h/mg
Brainiac activity with substrate ([1]; substrate 20 mM): 0.00 nmol/h/mg

Molecule: O=[N+]([O-])c1ccccc1O[C@@H]1O[C@H](CO)[C@H](O)[C@H](O)[C@H]1O [Galβ1-oNph]
Brainiac activity with substrate ([1]; substrate 2 mM): 0.21 nmol/h/mg
Brainiac activity with substrate ([1]; substrate 20 mM): 0.02 nmol/h/mg

Molecule: C[C@@H]1OC(N)[C@@H](O)[C@H](O)[C@@H]1O (stereo partly drawn) [L-Fucosylamine]
Brainiac activity with substrate ([1]; substrate 2 mM): 0.28 nmol/h/mg
Brainiac activity with substrate ([1]; substrate 20 mM): 0.60 nmol/h/mg

Molecule: Galβ1-4GlcNAc
Brainiac activity with substrate ([1]; substrate 2 mM): 0.03 nmol/h/mg
Brainiac activity with substrate ([1]; substrate 20 mM): 0.12 nmol/h/mg

B1: Fringe: Drosophila Fringe protein with a single C-terminal myc-epitope tag (protein, UniProt Q24342 1-412, looked up)
Fringe glycosyltransferase: MMSLTVLSPPQRFKRILQAMMLAVAVVYMTLLLYQSAYGYPGIQVPHSQVDALASEAVTTHRDQLLQDYVQSSTPTQPGAGAPAASPTTVIIRKDIRSFNFSDIEVSERPTATLLTELARRSRNGELLRDLSQRAVTATPQPPVTELDDIFISVKTTKNYHDTRLALIIKTWFQLARDQTWFFTDTDDHYYQEKTKGHLINTKCSQGHFRKALCCKMSAELDVFLESGKKWFCHFDDDNYVNVPRLVKLLDEYSPSVDWYLGKPSISSPLEIHLDSKNTTTNKKITFWFATGGAGFCLSRALTLKMLPIAGGGKFISIGDKIRFPDDVTMGFIIEHLLKVPLTVVDNFHSHLEPMEFIRQDTFQDQVSFSYAHMKNQWNVIKVDGFDMKTDPKRFYSLHCQLFPYFSFCPPR
modifications: C-terminal myc tag
Delta-AP binding, in words (Notch; Notch-expressing cells co-cultured with Fringe-expressing cells for two days (secreted Fringe)): Delta-AP bound at background level
Effect on Delta-AP binding, in words (Notch; co-expressed with Notch in S2 cells): large increase in Delta-AP binding
Stimulation of Delta-AP binding (Notch; co-expressed with Notch in S2 cells, FIG. 3b): over 50 fold

— patent US20030153056A1, “Glycosyltransferase proteins” (priority 2000, published 2003)
